The target in one assay is T1, KRas-G12D (Homo sapiens, UniProt P01116, G12D).
T1 construct: insert the HiBiT tag onto the N-terminus of one or more of the endogenous KRas alleles; host or cells: AsPC-1 HiBiT-KRasG12D knock-in clone (one tagged allele, two untagged KRasG12D alleles)
T1 sequence (P01116 1-188 isoform P01116-2 G12D): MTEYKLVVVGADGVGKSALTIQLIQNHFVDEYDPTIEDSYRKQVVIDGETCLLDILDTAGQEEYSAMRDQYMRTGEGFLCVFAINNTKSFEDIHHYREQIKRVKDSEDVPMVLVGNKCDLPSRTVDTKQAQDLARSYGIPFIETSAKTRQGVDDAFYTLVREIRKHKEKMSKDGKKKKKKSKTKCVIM
The assay is described as follows: HiBiT Degradation Assay (G12D), AsPC-1 HiBiT-KRasG12D cells, 24 hr. To be noted: ASPC1, AsPC-1 cells, maximum degradation observed. The assay is classed as cell-based. The method, then: AsPC-1 (CRL-1682) cells were purchased from ATCC and are homozygous for the G12D mutation in KRas. AsPC-1 cells were cultured in GIBCO RPMI-1640 (ThermoFisher Scientific, catalog #61870-036, with Glutamax, no HEPES, no Na Pyruvate) supplemented with 10% FBS (ThermoFisher Scientific, catalog #2060357) and 1× Penicillin-Streptomycin (ThermoFisher Scientific, catalog #15140122, 10000 U/ml, 100×). For degradation assays, 384 well plates were used. Alamar blue was purchased from ThermoFisher Scientific (A50101) and used according to manufacturer instructions. The Nano-Glo® HiBiT Lytic Detection System and Nano-Glo® HiBiT Blotting System were purchased from Promega (#N3050 and #N2410) and used according to manufacturer instructions.
To create the AsPC-1 HiBiT-KRasG12D cell line, CRISPR-Cas9 was used to insert the HiBiT tag onto the N-terminus of one or more of the endogenous KRas alleles. See Schwinn, M. K. et al. (2018) CRISPR-mediated tagging of endogenous proteins with a luminescent peptide, ACS Chem. Biol. 13(2), 467-474. After knock-in of the tag, individual clones were isolated by single cell dilution and screened for HiBiT insertion by PCR. A clone was identified that contained the desired HiBiT-KRasG12D sequence at one allele while the remaining two KRasG12D alleles were untagged. This clone was used in further studies.
AsPC-1 HiBiT-KRasG12D cells were plated at 9000 or 15,000 cells/well in a 384 well plate (Corning #3770). Compounds of the present disclosure and positive controls were diluted in the appropriate cell media and applied to the plated cells resulting in a final concentration titration of 10 μM to […] in 0.5% DMSO. Gambogic acid was used as a positive control for cytotoxicity and titrated from 10 μM to 78 nM. All assays were performed in triplicate. Cells were treated with compounds for 24 hr at 37° C. in an incubator containing 5% CO2. Following treatment, alamar blue was used to determine if any compounds led to a loss in cell viability after 24 hr. The 10× alamar blue reagent was added to a final concentration of 1× as recommended by the manufacturer and cells were returned to the incubator for 4 hr. Plates were then allowed to equilibrate to RT and fluorescence was measured using a Perkin-Elmer EnVision. After completion of the fluorescence read, the liquid from each well was removed and the cells were washed with PBS. The Nano-Glo® HiBiT detection reagent was prepared according to the manufacturer's instructions and added to each well after the PBS wash was removed. Following incubation at room temperature for 45 min, the luminescence was read using the ultra-sensitive luminescence aperture on the Envision instrument.
Fluorescence values from the alamar blue treatment were normalized to the DMSO-only control for each compound titration. HiBiT luminescence was normalized to the DMSO-only control and the fractional HiBiT signal was plotted versus the log of the PROTAC concentration and fit to a 4-parameter dose-response model to obtain the concentration of the compound that leads to half maximal degradation (DC50) as well as the maximum degradation observed (Dmax, conventionally expressed as a percentage of control).
As a reminder, the Dmax is the greatest extent of degradation seen. A lower Dmax goes with shallow degradation. As for `CCc1cccc2cc(O)cc(-c3ncc4c(N5CC6CCC(C5)N6)nc(OCCN5CCC(CN6CC7(CCN(c8ccc9c(c8)CN(C8CCC(=O)NC8=O)C9=O)CC7)C6)CC5)nc4c3F)c12` (centres unmarked) [Compound 2], the Dmax was over 70%.

`CCc1cccc2cc(O)cc(-c3ncc4c(N5CC6CCC(C5)N6)nc(OCCN5CCN(CC6CCN(c7ccc(N8CCC(=O)NC8=O)c(F)c7)CC6)CC5)nc4c3F)c12` [Compound 14] came in with a Dmax of at most 25%.

The compound `CCc1cccc2cc(O)cc(-c3ncc4c(N5CC6CCC(C5)N6)nc(OCCN5CCN(CC6CCN(c7ccc(F)c(C(=O)NC8CCC(=O)NC8=O)c7)CC6)CC5)nc4c3F)c12` (centres unmarked) [Compound 17] registered a Dmax of at most 25%.

In the case of `CCc1cccc2cc(O)cc(-c3ncc4c(N5CC6CCC(C5)N6)nc(OCCN5CCC(CN6CCC(Oc7cccc8c7C(=O)N(C7CCC(=O)NC7=O)C8=O)CC6)CC5)nc4c3F)c12` (centres unmarked) [Compound 18], the Dmax is at most 25%.

Still in this assay, the particulars now being: AsPC-1 cells.
In general, DC50 refers to the midpoint of the concentration-degradation curve. The low end stands for a more potent degrader, the high end for a less potent degrader. Consider `CCc1cccc2cc(O)cc(-c3ncc4c(N5CC6CCC(C5)N6)nc(OCCN5CCC(CN6CC7(C6)CN(c6ccc8c(c6)C(=O)N(C6CCC(=O)NC6=O)C8=O)C7)CC5)nc4c3F)c12` (centres unmarked) [Compound 1], for which the DC50 was 0.1 to 5.25 µM.

In the case of `CCc1cccc2cc(O)cc(-c3ncc4c(N5CC6CCC(C5)N6)nc(OCCN5CCC(CN6CC7(CCN(c8ccc9c(c8)CN(C8CCC(=O)NC8=O)C9=O)CC7)C6)CC5)nc4c3F)c12` (centres unmarked) [Compound 2], the DC50 is under 5.1 µM.

Turning to `CCc1cccc2cc(O)cc(-c3ncc4c(N5CC6CCC(C5)N6)nc(OCCN5CCC(CN6CCC7(CC6)CN(c6cccc8c6CN(C6CCC(=O)NC6=O)C8=O)C7)CC5)nc4c3F)c12` (centres unmarked) [Compound 3], the DC50 fell in the range of 0.25 to 1 µM.

The compound `CCc1cccc2cc(O)cc(-c3ncc4c(N5CC6CCC(C5)N6)nc(OCCN5CCN(CCN(C)[C@H]6C[C@H](Oc7ccc8c(c7)C(=O)N(C7CCC(=O)NC7=O)C8=O)C6)CC5)nc4c3F)c12` (some centres unmarked) [Compound 4] gave a DC50 of over 1 µM.

Compound `CCc1cccc2cc(O)cc(-c3ncc4c(N5CC6CCC(C5)N6)nc(OCCN5CCN(c6cc(N7CCN(c8ccc9c(c8)C(=O)N(C8CCC(=O)NC8=O)C9=O)CC7)ncn6)CC5)nc4c3F)c12` (centres unmarked) [Compound 5] yielded a DC50 of over 1 µM.

`CCc1cccc2cc(O)cc(-c3ncc4c(N5CC6CCC(C5)N6)nc(OCCN5CCN(CC6CCN(C(=O)c7ccc(OC)c(N8CCC(=O)NC8=O)c7)CC6)CC5)nc4c3F)c12` [Compound 6] registered a DC50 of over 1 µM.

The compound `CCc1cccc2cc(O)cc(-c3ncc4c(N5CC6CCC(C5)N6)nc(OCCN5CCN(c6cc(OC)c7c(c6)C(=O)N(C6CCC(=O)NC6=O)C7=O)CC5)nc4c3F)c12` (centres unmarked) [Compound 7] displayed a DC50 of over 1 µM.

Turning to `CCc1cccc2cc(O)cc(-c3ncc4c(N5CC6CCC(C5)N6)nc(OCCN5CCC(CN6CCC(Oc7ccc8c(c7)C(=O)N(C7CCC(=O)NC7=O)C8=O)CC6)CC5)nc4c3F)c12` (centres unmarked) [Compound 8], the DC50 lay within 0.25 to 1 µM.

`CCc1cccc2cc(O)cc(-c3ncc4c(N5CC6CCC(C5)N6)nc(OCCN5CCC(CN6CCN(c7cccc8c7CN(C7CCC(=O)NC7=O)C8=O)CC6)CC5)nc4c3F)c12` (centres unmarked) [Compound 9] yielded a DC50 of 0.25 to 1 µM.

`CCc1cccc2cc(O)cc(-c3ncc4c(N5CC6CCC(C5)N6)nc(OCCN5CCC(CCCN6CCN(c7ccc8c(c7)C(=O)N(C7CCC(=O)NC7=O)C8=O)CC6)CC5)nc4c3F)c12` (centres unmarked) [Compound 10] came in with a DC50 of 0.25 to 1 µM.

The compound `CCc1cccc2cc(O)cc(-c3ncc4c(N5CC6CCC(C5)N6)nc(OCCN5CCC(CN(C)[C@H]6C[C@H](Oc7ccc8c(c7)C(=O)N(C7CCC(=O)NC7=O)C8=O)C6)CC5)nc4c3F)c12` (some centres unmarked) [Compound 11] came in with a DC50 of 0.25 to 1 µM.

`CCc1cccc2cc(O)cc(-c3ncc4c(N5CC6CCC(C5)N6)nc(OCCN5CCC(CCC6CCN(c7ccc8c(c7)C(=O)N(C7CCC(=O)NC7=O)C8=O)CC6)CC5)nc4c3F)c12` (centres unmarked) [Compound 12] came in with a DC50 of over 1 µM.

In turn, `CCc1cccc2cc(O)cc(-c3ncc4c(N5CC6CCC(C5)N6)nc(OCCN5CCC(C(C)(C)N6CCN(c7ccc8c(c7)C(=O)N(C7CCC(=O)NC7=O)C8=O)CC6)CC5)nc4c3F)c12` (centres unmarked) [Compound 13] had a DC50 of 0.25 to 1 µM.

`CCc1cccc2cc(O)cc(-c3ncc4c(N5CC6CCC(C5)N6)nc(OCCN5CCN(CC6CCN(c7ccc(N8CCC(=O)NC8=O)c(F)c7)CC6)CC5)nc4c3F)c12` [Compound 14] yielded a DC50 of 0.25 to 1 µM.

`CCc1cccc2cc(O)cc(-c3ncc4c(N5CC6CCC(C5)N6)nc(OCCN5CCN(CC6CCN(c7ccc(OC)c(C(=O)NC8CCC(=O)NC8=O)c7)CC6)CC5)nc4c3F)c12` (centres unmarked) [Compound 15]: the DC50 was in the range of 0.25 to 1 µM.

The compound `CCc1cccc2cc(O)cc(-c3ncc4c(N5CC6CCC(C5)N6)nc(OCCN5CCC(Cn6cccc(CN7CCC(=O)NC7=O)c6=O)CC5)nc4c3F)c12` [Compound 16] displayed a DC50 of over 1 µM.

`CCc1cccc2cc(O)cc(-c3ncc4c(N5CC6CCC(C5)N6)nc(OCCN5CCN(CC6CCN(c7ccc(F)c(C(=O)NC8CCC(=O)NC8=O)c7)CC6)CC5)nc4c3F)c12` (centres unmarked) [Compound 17] returned a DC50 of 0.25 to 1 µM.

In turn, `CCc1cccc2cc(O)cc(-c3ncc4c(N5CC6CCC(C5)N6)nc(OCCN5CCC(CN6CCC(Oc7cccc8c7C(=O)N(C7CCC(=O)NC7=O)C8=O)CC6)CC5)nc4c3F)c12` (centres unmarked) [Compound 18] showed a DC50 of over 1 µM.

On to `CCc1cccc2cc(O)cc(-c3ncc4c(N5CC6CCC(C5)N6)nc(OCCN5CCC6(CC5)CCN(c5ccc7c(c5)C(=O)N(C5CCC(=O)NC5=O)C7=O)CC6)nc4c3F)c12` (centres unmarked) [Compound 19], for which the DC50 lay in the range of 0.25 to 1 µM.

With `CCc1cccc2cc(O)cc(-c3ncc4c(N5CC6CCC(C5)N6)nc(OCCN5CCC(CN6CCN(CC7CCN(c8ccc9c(c8)C(=O)C(C8CCC(=O)NC8=O)C9=O)CC7)CC6)CC5)nc4c3F)c12` (centres unmarked) [Compound 20], the DC50 lay in the range of 0.1 to 5.25 µM.

In the case of `CCc1cccc2cc(O)cc(-c3ncc4c(N5CC6CCC(C5)N6)nc(OCCN5CCOC(CN6CCN(CC7CCN(c8ccc9c(c8)C(=O)N(C8CCC(=O)NC8=O)C9=O)CC7)CC6)C5)nc4c3F)c12` (centres unmarked) [Compound 21], the DC50 lay in the range of 0.25 to 1 µM.

Consider `CCc1cccc2cc(O)cc(-c3ncc4c(N5CC6CCC(C5)N6)nc(OCCN5CCC(CN6CCC7(CC6)CCN(c6ccc8c(c6)C(=O)N(C6CCC(=O)NC6=O)C8=O)CC7)CC5)nc4c3F)c12` (centres unmarked) [Compound 22], for which the DC50 was in the range of 0.1 to 5.25 µM.

Take `CCc1cccc2cc(O)cc(-c3ncc4c(N5CC6CCC(C5)N6)nc(OCCN5CCC(O[C@H]6CC[C@H](OC7CCN(c8cccc9c8CN(C8CCC(=O)NC8=O)C9=O)CC7)CC6)CC5)nc4c3F)c12` (some centres unmarked) [Compound 23]: the DC50 is 0.25 to 1 µM.

Compound `CCc1cccc2cc(O)cc(-c3ncc4c(N5CC6CCC(C5)N6)nc(OCCN5CCC(O[C@H]6C[C@H](OC7CCN(c8cccc9c8CN(C8CCC(=O)NC8=O)C9=O)CC7)C6)CC5)nc4c3F)c12` (some centres unmarked) [Compound 24] gave a DC50 of 0.1 to 5.25 µM.

With `CCc1cccc2cc(O)cc(-c3ncc4c(N5CC6CCC(C5)N6)nc(OCCN5CCC6(CC5)CCN(CC5CCN(c7ccc8c(c7)C(=O)N(C7CCC(=O)NC7=O)C8=O)CC5)CC6)nc4c3F)c12` (centres unmarked) [Compound 25], the half-maximal degradation concentration (DC50) was under 5.1 µM.

As to `CCc1cccc2cc(O)cc(-c3ncc4c(N5CC6CCC(C5)N6)nc(OCCN5CCC(COCC6CCN(c7ccc8c(c7)C(=O)N(C7CCC(=O)NC7=O)C8=O)CC6)CC5)nc4c3F)c12` (centres unmarked) [Compound 26], the DC50 fell in the range of 0.25 to 1 µM.

The compound `CCc1cccc2cc(O)cc(-c3ncc4c(N5CC6CCC(C5)N6)nc(OCCN5CCC(C6CCN(c7ccc8c(c7)C(=O)N(C7CCC(=O)NC7=O)C8=O)CC6)CC5)nc4c3F)c12` (centres unmarked) [Compound 27] yielded a DC50 of 0.25 to 1 µM.

In turn, `CCc1cccc2cc(O)cc(-c3ncc4c(N5CC6CCC(C5)N6)nc(OCCN5CCC(CC6CCN(c7cccc8c7n(C)c(=O)n8C7CCC(=O)NC7=O)CC6)CC5)nc4c3F)c12` (centres unmarked) [Compound 28, 3-[4-[4-[[1-[2-[4-(3,8-diazabicyclo[3.2.1]octan-3-yl)-7-(8-ethyl-3-hydroxy-1-naphthyl)-8-fluoro-pyrido[4,3-d]pyrimidin-2-yl]oxyethyl]-4-piperidyl]methyl]-1-piperidyl]-3-methyl-2-oxo-benzimidazol-1-yl]piperidine-2,6-dione] yielded a DC50 of 0.25 to 1 µM.

`CCc1cccc2cc(O)cc(-c3ncc4c(N5CC6CCC(C5)N6)nc(OCCN5CCC(F)(CC6CCN(c7cccc8c7CN(C7CCC(=O)NC7=O)C8=O)CC6)CC5)nc4c3F)c12` (centres unmarked) [Compound 29] yielded a DC50 of 0.25 to 1 µM.

Take `CCc1cccc2cc(O)cc(-c3nc(N4CC5CCC(C4)N5)c4cnc(OCCN5CCC(CC6CCN(c7cccc8c7CN(C7(C)CCC(=O)NC7=O)C8=O)CC6)CC5)nc4c3F)c12` (centres unmarked) [Compound 30]: the DC50 is over 1 µM.

The compound `CCc1cccc2cc(O)cc(-c3ncc4c(N5CC6CCC(C5)N6)nc(OCCN5CCC(CCN6CCN(c7ccc8c(c7)C(=O)N(C7CCC(=O)NC7=O)C8=O)CC6)CC5)nc4c3F)c12` (centres unmarked) [Compound 31] came in with a DC50 of 0.1 to 5.25 µM.

These data come from patent publication US12448399B2, “Cereblon-based KRAS degrading PROTACs and uses related thereto” (Arvinas Operations, Inc., priority 2023, dated 2025).
